Assay results published in patent US20090068290A1, “BIFEPRUNOX DOSES FOR TREATING SCHIZOPHRENIA” (priority 2006, published 2009).

Columns and labels:
Assay type in all cases: in vivo, human
[1] = tested on: adult subjects with schizophrenia; assay: PANSS general psychopathology subscale score, Clinical Study One; settings: Risperidone 6 mg, ITT population
Description: (§1) There were five treatment groups in this study. […] Study medication was administered once daily. After Baseline measurements were performed, the titration phase was begun. Bifeprunox treated subjects were titrated up to 5 mg, 10 mg or 20 mg according to a standardized titration schedule (Day 1: 0.125 mg, Day 2: 0.25 mg, Day 3: 0.5 mg, Day 4: 1.0 mg, Day 5: 2.0 mg, Day 6: 5.0 mg, Day 7: 10.0 mg, Day 8: 20 mg). When the assigned dose was reached, subjects were maintained at that dose for the remainder of the six-week treatment period.
(§2) The change in the Positive and Negative Symptom Scale (PANSS) total score, from baseline to endpoint, was the primary outcome measure. Secondary efficacy measures included: PANSS positive, PANSS negative, PANSS general psychopathology (GPP) score, PANSS-derived Brief Psychiatric Rating Scale (BPRS) score, Clinical Global Impressions-Severity of Illness (CGI-S), CGI-Improvement (CGI-I) scores, and responder rates. Safety and tolerability evaluations included extrapyramidal symptoms (EPS), weight gain, lipid profile, and serum prolactin.

[2] = tested on: adult subjects with schizophrenia; assay: CGI Severity of Illness score, Clinical Study One; settings: Risperidone 6 mg, ITT population
Description: as §1, §2

[3] = tested on: adult subjects with schizophrenia; assay: Adverse events (TEAE, SAE, discontinuation, EPS-related TEAE, anticholinergic use), Clinical Study One
Description: METHODOLOGY: This was a randomized, double-blind, fixed-dose, placebo-controlled, risperidone-referenced, parallel group, multi-center study in adult subjects with schizophrenia. There were five treatment groups in this study. […] Study medication was administered once daily. After Baseline measurements were performed, the titration phase was begun. Bifeprunox treated subjects were titrated up to 5 mg, 10 mg or 20 mg according to a standardized titration schedule (Day 1: 0.125 mg, Day 2: 0.25 mg, Day 3: 0.5 mg, Day 4: 1.0 mg, Day 5: 2.0 mg, Day 6: 5.0 mg, Day 7: 10.0 mg, Day 8: 20 mg).

For `Cc1nc2n(c(=O)c1CCN1CCC(c3noc4cc(F)ccc34)CC1)CCCC2` [Risperidone, risperidone, reference compound], the “Change from Baseline in PANSS General Psychopathology Subscale Score, Mean (S.D.)” value ([1]; Endpoint LOCF) was −6.8 (7.8), the “Change from Baseline in PANSS General Psychopathology Subscale Score, Median” value ([1]; Endpoint LOCF) was −5 and the “Change from Baseline in PANSS General Psychopathology Subscale Score, Mean (S.D.)” value ([1]; Week 1, LOCF) was −3.4 (5.8). For the same molecule, the “Change from Baseline in PANSS General Psychopathology Subscale Score, Median” value ([1]; Week 1, LOCF) was −3, the “Change from Baseline in PANSS General Psychopathology Subscale Score, Mean (S.D.)” value ([1]; Week 2, LOCF) was −5.8 (7.1) and the “Change from Baseline in PANSS General Psychopathology Subscale Score, Median” value ([1]; Week 2, LOCF) was −6. The “Change from Baseline in PANSS General Psychopathology Subscale Score, Mean (S.D.)” value ([1]; Week 3, LOCF) was −6.9 (7.3), the “Change from Baseline in PANSS General Psychopathology Subscale Score, Median” value ([1]; Week 3, LOCF) was −6 and the “Change from Baseline in PANSS General Psychopathology Subscale Score, Mean (S.D.)” value ([1]; Week 4, LOCF) was −6.3 (7.7). The “Change from Baseline in PANSS General Psychopathology Subscale Score, Median” value ([1]; Week 4, LOCF) was −5, the “Change from Baseline in CGI Severity of Illness Score, Mean (S.D.)” value (from here on “Change from Baseline in CGI Severity … (S.D.)”) ([2]; Endpoint LOCF) was −0.76 (0.93) and the “Change from Baseline in CGI Severity of Illness Score, Median” value (“Change … of Illness Score, Median” below) ([2]; Endpoint LOCF) was 0.0. For the same molecule, the “Change from Baseline in CGI Severity … (S.D.)” value ([2]; Week 1, LOCF) was −0.37 (0.68), the “Change … of Illness Score, Median” value ([2]; Week 1, LOCF) was 0.0 and the “Change from Baseline in CGI Severity … (S.D.)” value ([2]; Week 2, LOCF) was −0.60 (0.83). For the same molecule, the “Change … of Illness Score, Median” value ([2]; Week 2, LOCF) was 0.0, the “Change from Baseline in CGI Severity … (S.D.)” value ([2]; Week 3, LOCF) was −0.70 (0.81) and the “Change … of Illness Score, Median” value ([2]; Week 3, LOCF) was 0.0. The “Change from Baseline in CGI Severity … (S.D.)” value ([2]; Week 4, LOCF) was −0.69 (0.85), the “Change … of Illness Score, Median” value ([2]; Week 4, LOCF) was 0.0 and the “TEAE Akathisia, %” value ([3]; 6 mg, Safety Population) was “(5%)”. For the same molecule, the “TEAE Muscle Spasms, %” value ([3]; 6 mg, Safety Population) was “(2%)”, the “TEAE Musculoskeletal Stiffness, %” value ([3]; 6 mg, Safety Population) was “(<1%)” and the “TEAE Myalgia, %” value ([3]; 6 mg, Safety Population) was “(2%)”. For the same molecule, the “TEAE NERVOUS SYSTEM DISORDERS, %” value ([3]; 6 mg, Safety Population) was “(49%)”, the “TEAE Neck Pain, %” value ([3]; 6 mg, Safety Population) was “(2%)” and the “TEAE Neck Stiffness, %” value ([3]; 6 mg, Safety Population) was “(<1%)”. The “TEAE Pain in Jaw, %” value ([3]; 6 mg, Safety Population) was “(<1%)”, the “TEAE Pain in Limb, %” value ([3]; 6 mg, Safety Population) was “(2%)” and the “Affect Lability, %” value ([3]; Risperidone 6 mg) was “(<1%)”. The “Agitation, %” value ([3]; Risperidone 6 mg) was “(8%)”, the “Alcoholic Hangover, %” value ([3]; Risperidone 6 mg) was “(<1%)” and the “Anxiety Aggravated, %” value ([3]; Risperidone 6 mg) was “(3%)”. The “Anxiety, %” value ([3]; Risperidone 6 mg) was “(6%)”, the “DIZZINESS, %” value ([3]; Risperidone 6 mg) was “(5%)” and the “DYSARTHRIA, %” value ([3]; Risperidone 6 mg) was “(2%)”. For the same molecule, the “Disturbance in Attention, %” value ([3]; Risperidone 6 mg) was “(<1%)”, the “Drooling, %” value ([3]; Risperidone 6 mg) was “(2%)” and the “Dystonia, %” value ([3]; Risperidone 6 mg) was “(4%)”. For the same molecule, the “EXTRAPYRAMIDAL DISORDER, %” value ([3]; Risperidone 6 mg) was “(3%)”, the “Gait Feastinating, %” value ([3]; Risperidone 6 mg) was “(<1%)” and the “Headache Nos, %” value ([3]; Risperidone 6 mg) was “(28%)”. The “Hypoaesthesia, %” value ([3]; Risperidone 6 mg) was “(<1%)”, the “Migraine Aggravated, %” value ([3]; Risperidone 6 mg) was “(<1%)” and the “Oculogyric Crisis, %” value ([3]; Risperidone 6 mg) was “(<1%)”. For the same molecule, the “PARAESTHESIA, %” value ([3]; Risperidone 6 mg) was “(<1%)”, the “PSYCHIATRIC DISORDERS, %” value ([3]; Risperidone 6 mg) was “(39%)” and the “SEDATION, %” value ([3]; Risperidone 6 mg) was “(13%)”. The “SOMNOLENCE, %” value ([3]; Risperidone 6 mg) was “(22%)”, the “TREMOR, %” value ([3]; Risperidone 6 mg) was “(<1%)” and the “incidence of aggravated schizophrenia NOS (SAE)” value ([3]; Risperidone 6 mg) was 4%. For the same molecule, the “subjects with at least one AE that led to discontinuation” value ([3]; Risperidone 6 mg) was 14%, the “subjects with at least one SAE” value ([3]; Risperidone 6 mg) was 16% and the “subjects with at least one TEAE” value ([3]; Risperidone 6 mg) was 89%. The suicide attempt ([3]; Risperidone 6 mg) was “no subjects”.
